# Reference: paper PMC8371902, “Phase 1 study of M2698, a p70S6K/AKT dual inhibitor, in patients with advanced cancer” (Journal of Hematology & Oncology, 2021)
# Read-outs that look alike come from different tables or passages of the source.
# Tested on: patients with advanced metastatic cancer
# Excerpt: In this phase 1 study, dose escalation was followed by expansion cohorts of once-daily, oral M2698 in continuous 21-day cycles. Primary objectives were to determine the maximum tolerated dose (MTD), dose-limiting toxicities (DLTs), and recommended phase 2 dose (RP2D). Secondary objectives were to assess safety and tolerability, pharmacokinetics (PK, including food effect) and antitumor activity. Pharmacodynamic biomarker assessments were exploratory. Treatment was discontinued if there was disease progression, toxicity or consent withdrawal.
# In Part 1, M2698 monotherapy was investigated in a dose escalation with a food effect cohort. In Part 2, M2698 was investigated as monotherapy (expansion cohort) to further characterize safety, tolerability and pharmacokinetics, and assess antitumor activity in PAM + patients without confounding markers (exploratory).
# Dose escalation analysis included all patients who experienced a DLT and those who received ≥ 80% of planned M2698 doses in cycle 1 without experiencing a DLT. Safety analysis included all patients who received ≥ 1 dose of M2698. PK analysis included all patients who received ≥ 1 dose of M2698 and had measurable plasma concentrations. Dose proportionality was tested using the power model (linear regression approach on the log -transformed scale).
compound,measurement,setting,value
NC(=O)c1cccc2c(N[C@H](CN3CCC3)c3ccc(Cl)c(C(F)(F)F)c3)ncnc12 [M2698],M2698-related TEAE: Hyperhidrosis,30 mg n=3,0
same,M2698-related TEAE: Hypokalaemia,30 mg n=3,1
same,M2698-related TEAE: Hypomagnesaemia,30 mg n=3,0
same,M2698-related TEAE: Insomnia,30 mg n=3,0
same,M2698-related TEAE: Investigations,30 mg n=3,0
same,M2698-related TEAE: Lipase increased,30 mg n=3,0
same,M2698-related TEAE: Lymphopenia,30 mg n=3,0
same,M2698-related TEAE: Metabolism and nutrition disorders,30 mg n=3,1
same,M2698-related TEAE: Mucosal inflammation,30 mg n=3,0
same,M2698-related TEAE: Nausea,30 mg n=3,0
same,M2698-related TEAE: Nervous system disorders,30 mg n=3,0
same,M2698-related TEAE: Nightmare,30 mg n=3,0
same,M2698-related TEAE: Onychomadesis,30 mg n=3,0
same,M2698-related TEAE: Paranoia,30 mg n=3,0
same,M2698-related TEAE: Photosensitivity reaction,30 mg n=3,0
same,M2698-related TEAE: Posterior reversible encephalopathy syndrome,30 mg n=3,0
same,M2698-related TEAE: Pruritus generalised,30 mg n=3,0
same,M2698-related TEAE: Psychiatric disorders,30 mg n=3,0
same,M2698-related TEAE: Rash,30 mg n=3,0
same,M2698-related TEAE: Rash maculo-papular,30 mg n=3,1
same,M2698-related TEAE: Skin and subcutaneous tissue disorders,30 mg n=3,1
same,M2698-related TEAE: Subjects with at least one event,30 mg n=3,2
same,M2698-related TEAE: Transaminases increased,30 mg n=3,0
same,M2698-related TEAE: Tremor,30 mg n=3,0
same,M2698-related TEAE: Vision blurred,30 mg n=3,1
same,M2698-related TEAE: Vomiting,30 mg n=3,0
same,M2698-related TEAE: White blood cell count decreased,30 mg n=3,0
same,M2698-related TEAE: Abnormal dreams,60 mg n=6,0
same,M2698-related TEAE: Affect lability,60 mg n=6,1
same,M2698-related TEAE: Alanine aminotransferase increased,60 mg n=6,1
same,M2698-related TEAE: Amylase increased,60 mg n=6,1
same,M2698-related TEAE: Anaemia,60 mg n=6,0
same,M2698-related TEAE: Angina pectoris,60 mg n=6,1
same,M2698-related TEAE: Anxiety,60 mg n=6,0
same,M2698-related TEAE: Aphasia,60 mg n=6,0
same,M2698-related TEAE: Ataxia,60 mg n=6,0
same,M2698-related TEAE: Blood and lymphatic system disorders,60 mg n=6,0
same,M2698-related TEAE: Blood creatine phosphokinase increased,60 mg n=6,0
same,M2698-related TEAE: Blood creatinine increased,60 mg n=6,0
same,M2698-related TEAE: Cardiac disorders,60 mg n=6,1
same,M2698-related TEAE: Cognitive disorder,60 mg n=6,0
same,M2698-related TEAE: Constipation,60 mg n=6,0
same,M2698-related TEAE: Decreased appetite,60 mg n=6,0
same,M2698-related TEAE: Delusion,60 mg n=6,0
same,M2698-related TEAE: Depression,60 mg n=6,0
same,M2698-related TEAE: Diarrhoea,60 mg n=6,0
same,M2698-related TEAE: Diarrhoea haemorrhagic,60 mg n=6,0
same,M2698-related TEAE: Dizziness,60 mg n=6,0
same,M2698-related TEAE: Dry eye,60 mg n=6,0
same,M2698-related TEAE: Dry mouth,60 mg n=6,0
same,M2698-related TEAE: Dysgeusia,60 mg n=6,0
same,M2698-related TEAE: Dyspepsia,60 mg n=6,0
same,M2698-related TEAE: Dysphagia,60 mg n=6,0
same,M2698-related TEAE: Energy increased,60 mg n=6,0
same,M2698-related TEAE: Erythema,60 mg n=6,0
same,M2698-related TEAE: Euphoric mood,60 mg n=6,0
same,M2698-related TEAE: Eye disorders,60 mg n=6,0
same,M2698-related TEAE: Fatigue,60 mg n=6,0
same,M2698-related TEAE: Gamma-glutamyltransferase increased,60 mg n=6,0
same,M2698-related TEAE: Gastrointestinal disorders,60 mg n=6,0
same,M2698-related TEAE: Gastrooesophageal reflux disease,60 mg n=6,0
same,M2698-related TEAE: General disorders and administration site conditions,60 mg n=6,0
same,M2698-related TEAE: Headache,60 mg n=6,0
same,M2698-related TEAE: Hyperhidrosis,60 mg n=6,0
same,M2698-related TEAE: Hypokalaemia,60 mg n=6,0
same,M2698-related TEAE: Hypomagnesaemia,60 mg n=6,0
same,M2698-related TEAE: Insomnia,60 mg n=6,0
same,M2698-related TEAE: Investigations,60 mg n=6,1
same,M2698-related TEAE: Lipase increased,60 mg n=6,1
same,M2698-related TEAE: Lymphopenia,60 mg n=6,0
same,M2698-related TEAE: Metabolism and nutrition disorders,60 mg n=6,0
same,M2698-related TEAE: Mucosal inflammation,60 mg n=6,0
same,M2698-related TEAE: Nausea,60 mg n=6,0
same,M2698-related TEAE: Nervous system disorders,60 mg n=6,0
same,M2698-related TEAE: Nightmare,60 mg n=6,0
same,M2698-related TEAE: Onychomadesis,60 mg n=6,1
same,M2698-related TEAE: Paranoia,60 mg n=6,0
same,M2698-related TEAE: Photosensitivity reaction,60 mg n=6,0
same,M2698-related TEAE: Posterior reversible encephalopathy syndrome,60 mg n=6,0
same,M2698-related TEAE: Pruritus generalised,60 mg n=6,0
same,M2698-related TEAE: Psychiatric disorders,60 mg n=6,1
same,M2698-related TEAE: Rash,60 mg n=6,0
same,M2698-related TEAE: Rash maculo-papular,60 mg n=6,0
same,M2698-related TEAE: Skin and subcutaneous tissue disorders,60 mg n=6,1
same,M2698-related TEAE: Subjects with at least one event,60 mg n=6,2
same,M2698-related TEAE: Transaminases increased,60 mg n=6,0
same,M2698-related TEAE: Tremor,60 mg n=6,0
same,M2698-related TEAE: Vision blurred,60 mg n=6,0
same,M2698-related TEAE: Vomiting,60 mg n=6,0
same,M2698-related TEAE: White blood cell count decreased,60 mg n=6,0
same,DLT observed,"60 mg, n = 1, resolved following treatment interruption",grade 3 lipase increase
same,M2698-related TEAE: Abnormal dreams,75 mg n=4,1
same,M2698-related TEAE: Affect lability,75 mg n=4,0
same,M2698-related TEAE: Alanine aminotransferase increased,75 mg n=4,0
same,M2698-related TEAE: Amylase increased,75 mg n=4,0
same,M2698-related TEAE: Anaemia,75 mg n=4,0
same,M2698-related TEAE: Angina pectoris,75 mg n=4,0
same,M2698-related TEAE: Anxiety,75 mg n=4,0
same,M2698-related TEAE: Aphasia,75 mg n=4,0
